{"source": "patent US20100021614A1", "about": "“COMPOSITION FOR PROMOTING BIOABSORPTION OF FLAVONOID, FOOD/BEVERAGE FOR PROMOTING BIOABSORPTION OF FLAVONOID USING THE COMPOSITION, AND METHOD FOR PRODUCTION OF THE FOOD/BEVERAGE” (priority 2006, published 2010)", "origin": "cited, not measured here", "conditions": "Wakui et al., J. Chromatog., 575, 131-136 (1992)", "data": [{"smiles": "O=c1cc(-c2ccccc2)oc2cc(O)c(O)c(O)c12", "note": "[baicalein]", "values": [{"measurement": "fraction of the amount administered that is absorbed", "result": "1/300"}]}]}
